The text below walks through data of US20260007679A1, “METHODS OF TREATING CANCER USING 3-(4-((4-(MORPHOLINOMETHYL)BENZYL)OXY)-1-OXOISOINDOLIN-2-YL)PIPERIDINE-2,6-DIONE” (Celgene Corporation, priority 2012, published 2026).

Like-named read-outs stand apart in the source and are kept apart here.

In test [1] the test system is NK cell mediated ADCC against Rituximab coated lymphoma cells. The experiment in a line: NK cell mediated ADCC assay (LDH release). It is filed as cell-based, human. The method, then: NK cells from healthy donors were isolated from buffy coat blood by negative selection using the RosetteSep NK cell enrichment cocktail (Stem Cell Technologies, Vancouver, BC) prior to Ficoll-Hypaque (Fisher Scientific Co LLC, PA) density gradient centrifugation following the manufacturers' instructions. CD56+NK cells were isolated to ˜85% purity, as determined by flow cytometry (BD Biosciences, CA).
ADCC Assay: Purified NK cells (5×104) were seeded in 96-well U-bottom plates in 100 μL of RPMI-1640 medium without phenol (Invitrogen)+2% human AB+serum (Gemini Bio Products, CA) and treated with 10 ng/mL rhIL-2 and rituximab (5 μg/mL) plus different concentrations of test compounds at 0.01 to 10 μM for 48 hours. Various lymphoma cell lines (GCB-DLBCL: WSU-DLCL2 and Farage; Follicular lymphoma: DoHH2; ABC-DLBCL: Riva; Burkitt's lymphoma [BL]: Raji) were treated with 5 µg/mL rituximab for 30 minutes at 37° C. Unbound rituximab was washed off, target cells (5×103/100 μL/well) were added to the pretreated effector cells (NK cells) at a 10:1 ratio, and the two were co-incubated for 4 hours at 37° C. Control conditions consisted of NK cells plus tumor cells treated with (1) medium alone, (2) rituximab only, or (3) IL-2 alone. Using an aliquot of supernatant (50 μL), NK cell cytotoxicity against tumor cells was analyzed using a standard lactate dehydrogenease (LDH) release assay to measure ADCC (CytoTox 96 Non-Radioactive Cytoxicity Assay, Promega, WI). Spontaneous release by target cells alone was <15% of the maximum release, as determined with target cells lysed in 1% Triton X-100. The experimental release was corrected by subtraction of the spontaneous release of effector cells at the corresponding dilution. The percentage of specific lysis was calculated according to the formula: Percentage specific lysis=100×(experimental−effector spontaneous−target spontaneous)/(target maximum−target spontaneous).
NK cell-mediated specific lysis was calculated with the following formula: Percentage specific lysis=[(experimental release−spontaneous release)/(maximum release−spontaneous release)]×100. Results were analyzed using GraphPad Prism v5.0 software. Data are presented as the percentage cytotoxicity relative to DMSO-treated cells.

In test [2] the test system is blood vessel growth in Matrigel plugs. The experiment in a line: Mouse Matrigel angiogenesis model. The format is in vivo, C57B/6 mice. To be noted: 3 and 30 mpk; 10 days. As for the experimental part: Mouse Matrigel Angiogenesis model was conducted as follows: Matrigel plugs with rhVegf, rhbFGF and heparin were inserted into C57B/6 mice for 10 days with drug treatment. Plugs were analyzed for ms CD31 by IHC.

The subject of another test is DoHH2 cell line. The experiment in a line: Apoptosis analysis (annexin-V). The format is cell-based. The method, then: Apoptosis Analysis: Cells were treated with DMSO or an amount of a compound provided herein at various time points, then washed with annexin-V wash buffer (BD Biosciences). Cells were incubated with annexin-V binding protein and propidium iodide (BD Biosciences) for 10 minutes. Samples were analyzed using flow cytometry.

For test [3], the system named is NCI-H929 cells (Control, Revlimid-sensitive, parental). The experiment in a line: Proliferation and viability by 7-AAD staining. To be noted: Homo sapiens, NCI-H929, 120 h; Control / parental H929; 5 days; read-out: IC50, proliferation. The format is cell-based.
Test [4] deals with normal donor peripheral blood mononuclear cells. Put plainly: Immunoglobulin M and G production. It is filed as cell-based. Conditions: Homo sapiens, PBMC. The method, then:
Immunoglobulin M and G (“IgG and IgM”) production was measured from normal donor peripheral blood mononuclear cells by culturing in the presence of the B cell differentiation factors recombinant human IL-2 (20U/mL), IL-10 (50 ng/mL), IL-15 (10 ng/mL), His-tagged CD40 Ligand (50 ng/mL), polyHistidine mouse IgG1 antibody (5 μg/mL), and ODN 2006-Human TLR9 ligand (10 μg/mL) for 4 days, followed by IL-2, IL-10, IL-15, and IL-6 (50 ng/mL) for an additional 3 days. IgM and IgG were measured by ELISA.

For test [5], the system named is Revlimid-resistant NCI-H929 R4-10. The experiment in a line: Proliferation and viability by 7-AAD staining. The format is cell-based. To be noted: Homo sapiens, NCI-H929, 120 h; R4-10; 5 days; read-out: IC50, proliferation.
In another test the test system is human umbilical artery. The experiment in a line: Human umbilical artery assay. It is filed as cell-based. As for the experimental part: Compounds I, I-R, and I-S were tested in various angiogenesis inhibition assays.
Test [6] deals with H929 DMSO-treated subclone. The experiment in a line: Proliferation and viability by 7-AAD staining. Conditions: Homo sapiens, NCI-H929, 120 h, 5 days, read-out: IC50 for inhibition of proliferation. The format is cell-based. The method, then:
(§1) CRBN ubiquitination was measured in HEK293T cells, which were transfected with an amino-terminal His-biotin-tagged CRBN construct, then preincubated with compounds for one hour followed by treatment with the MG132 proteasome inhibitor (to arrest degradation of ubiquitinated proteins). Cells were lysed and processed to measure CRBN ubiquitination by SDS-PAGE and immunoblot analysis using an anti-ubiquitin antibody. Cell proliferation studies were conducted in lenalidomide-sensitive and refractory multiple myeloma cells. […] T-cell costimulation was measured in purified primary human T cells stimulated using immobilized anti-CD3 antibody in cell culture for 2 days, and cytokine secretion was measured by ELISA.

The subject of another test is H929 cells. Put plainly: Cell cycle and protein expression in H929 cells. The format is cell-based.
Test [7] concerns purified primary human T cells stimulated using immobilized anti-CD3 antibody. Put plainly: T-cell costimulation, IL-2 production. The format is cell-based. The method, then:
as §1

As for `O=C1CCC(N2Cc3c(OCc4ccc(CN5CCOCC5)cc4)cccc3C2=O)C(=O)N1` (racemic) [Compound I, 3-(4-((4-(morpholinomethyl)benzyl)oxy)-1-oxoisoindolin-2-yl)piperidine-2,6-dione], the “concentration of peak ADCC activity” value was 1 µM in [1] (Farage cells); 0.1 µM in test [1] (Raji cells); 0.1 µM in test [1] (WSU-DLCL2 cells); 1 µM in test [1] (other cell lines (than WSU-DLCL2 and Raji)). For the same compound, the “rituximab-mediated ADCC, all cell lines” value in test [1] (WSU-DLCL2, Farage, DoHH2, Riva, Raji) was “more active than compounds I-S and I-R in all the cell lines tested except in Riva cells”. In addition, in test [2], the “blood vessel growth (ms CD31 IHC)” value was “significantly inhibits”. The “apoptosis induction and live cell number reduction in combination” value in the test on DoHH2 cell line (combined with Rituxan) was “additive manner”. Besides, the “apoptosis and cell numbers” value in the test on DoHH2 cell line (single agent) was “induced apoptosis”.

Consider `O=C1CC[C@H](N2Cc3c(OCc4ccc(CN5CCOCC5)cc4)cccc3C2=O)C(=O)N1` [Compound I-S, (S)-3-(4-((4-(morpholinomethyl)benzyl)oxy)-1-oxoisoindolin-2-yl)piperidine-2,6-dione], for which the IC50 in test [3] is 0.01 µM; in [4] (read-out: IgG production IC50), 0.0021 µM; in test [4] (read-out: IgM production IC50) it was 0.00035 µM; in test [5], 1.58 µM; in the test with human umbilical artery, 0.052 µM; in [6] it was 0.04 µM. The “expression of cyclin-dependent kinase inhibitor p27” value in the test with H929 cells (48 hours) is “increased”. The “expression of retinoblastoma protein (pRB)” value in the test on H929 cells (48 hours) was “decreased”. Also, the expression of survivin entry with H929 cells (48 hours) is recorded as “decreased”. For the same compound, the “decrease in cell cycle (S-phase)” value with H929 cells (after 24 hours of treatment) worked out at 50%. Further, the EC50 (as a rule, the concentration at which the effect is half-maximal) in test [7] was approximately 0.00029 µM.
